# Assay results reported in ChEMBL document CHEMBL1201862, “PubChem BioAssay data set” (2004).
#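 48-hour exposure; five concentrations; linearly interpolated endpoints. At the GI50, growth is halved.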 Calls of active or inactive are those of the source. Rule as the data show it: active = GI50 up to about 1.1 µM and inactive = higher.
# Tests used:
# Experiment in all cases: NCI-60 cell line screen, 48 h
# [1] = tested on: RPMI-8226
# [2] = tested on: NCI-H522
# [3] = tested on: OVCAR-8
# [4] = tested on: OVCAR-3
# [5] = tested on: IGROV-1
# [6] = tested on: Malme-3M
# [7] = tested on: M14
# [8] = tested on: LOX IMVI
# [9] = tested on: TK-10
# [10] = tested on: SNB-19
# [11] = tested on: SN12C
# [12] = tested on: RXF 393
# [13] = tested on: CAKI-1
# [14] = tested on: MOLT-4
# [15] = tested on: HOP-62
# [16] = tested on: DLD-1
# [17] = tested on: KM12
# [18] = tested on: HOP-92
# [19] = tested on: SNB-78
# [20] = tested on: COLO 205
# [21] = tested on: ACHN
# [22] = tested on: NCI-H23
# [23] = tested on: SK-MEL-2
# [24] = tested on: HCC 2998
# [25] = tested on: CCRF-CEM
# [26] = tested on: K562
# [27] = tested on: UACC-62
# [28] = tested on: SF-539
# [29] = tested on: NCI-H226
# [30] = tested on: LXFL 529
# [31] = tested on: SNB-75
# [32] = tested on: DMS-114
# [33] = tested on: 786-0
# [34] = tested on: OVCAR-5
# [35] = tested on: SW-620
# [36] = tested on: A498
# [37] = tested on: HL-60
# [38] = tested on: OVCAR-4
# [39] = tested on: SK-MEL-5
# [40] = tested on: SF-268
# [41] = tested on: EKVX
# [42] = tested on: HCT-116
# [43] = tested on: SF-295
# [44] = tested on: NCI-H460
# [45] = tested on: UO-31
# [46] = tested on: SK-OV-3
# [47] = tested on: DMS-273
# [48] = tested on: A549
# [49] = tested on: U-251
# [50] = tested on: KM-20L2
# [51] = tested on: RXF 631
# [52] = tested on: HT-29
# [53] = tested on: HCT-15
# [54] = tested on: UACC-257
# [55] = tested on: M19-MEL
# [56] = tested on: XF498
# [57] = tested on: SK-MEL-28
# [58] = tested on: HOP-18
smiles,measurement,setting,value
N=c1oc2cc(O)c(O)cc2cc1C(N)=O,GI50,[1],> 100 µM (inactive)
same,GI50,[2],45.1 µM (inactive)
same,GI50,[3],> 100 µM (inactive)
same,GI50,[4],> 100 µM (inactive)
same,GI50,[5],> 100 µM (inactive)
same,GI50,[6],> 100 µM (inactive)
same,GI50,[7],> 100 µM (inactive)
same,GI50,[8],> 100 µM (inactive)
same,GI50,[9],> 100 µM (inactive)
same,GI50,[10],> 100 µM (inactive)
same,GI50,[11],> 100 µM (inactive)
same,GI50,[12],> 100 µM (inactive)
same,GI50,[13],> 100 µM (inactive)
same,GI50,[14],84.9 µM (inactive)
same,GI50,[15],> 100 µM (inactive)
same,GI50,[16],> 100 µM (inactive)
same,GI50,[17],> 100 µM (inactive)
same,GI50,[18],> 100 µM (inactive)
same,GI50,[19],> 100 µM (inactive)
same,GI50,[20],> 100 µM (inactive)
same,GI50,[21],> 100 µM (inactive)
same,GI50,[22],> 100 µM (inactive)
same,GI50,[23],> 100 µM (inactive)
same,GI50,[24],> 100 µM (inactive)
same,GI50,[25],33 µM (inactive)
same,GI50,[26],> 100 µM (inactive)
same,GI50,[27],> 100 µM (inactive)
same,GI50,[28],> 100 µM (inactive)
same,GI50,[29],> 100 µM (inactive)
same,GI50,[30],> 100 µM (inactive)
same,GI50,[31],25 µM (inactive)
same,GI50,[32],> 100 µM (inactive)
same,GI50,[33],43.5 µM (inactive)
same,GI50,[34],> 100 µM (inactive)
same,GI50,[35],> 100 µM (inactive)
same,GI50,[36],> 100 µM (inactive)
same,GI50,[37],> 10 µM (inactive)
same,GI50,[38],> 100 µM (inactive)
same,GI50,[39],> 100 µM (inactive)
same,GI50,[40],81.3 µM (inactive)
same,GI50,[41],> 100 µM (inactive)
same,GI50,[42],> 100 µM (inactive)
same,GI50,[43],> 100 µM (inactive)
same,GI50,[44],> 100 µM (inactive)
same,GI50,[45],> 100 µM (inactive)
same,GI50,[46],> 100 µM (inactive)
same,GI50,[47],> 100 µM (inactive)
same,GI50,[48],> 100 µM (inactive)
same,GI50,[49],> 100 µM (inactive)
same,GI50,[50],> 100 µM (inactive)
same,GI50,[51],> 100 µM (inactive)
same,GI50,[52],> 100 µM (inactive)
same,GI50,[53],> 100 µM
same,GI50,[54],> 100 µM (inactive)
same,GI50,[55],> 100 µM (inactive)
same,GI50,[56],> 100 µM (inactive)
same,GI50,[57],> 100 µM (inactive)
C1=CC=C2NCCOCC/N=C3/C=CC=CC=C3NCCOCC/N=C\2C=C1,GI50,[1],45.7 µM (inactive)
same,GI50,[2],> 100 µM (inactive)
same,GI50,[3],57.4 µM (inactive)
same,GI50,[4],> 100 µM (inactive)
same,GI50,[5],> 100 µM (inactive)
same,GI50,[6],21.5 µM (inactive)
same,GI50,[7],17.8 µM (inactive)
same,GI50,[8],29 µM (inactive)
same,GI50,[9],> 100 µM (inactive)
same,GI50,[10],> 100 µM (inactive)
same,GI50,[11],77.6 µM (inactive)
same,GI50,[13],> 100 µM (inactive)
same,GI50,[14],44.9 µM (inactive)
same,GI50,[15],> 100 µM (inactive)
same,GI50,[16],> 100 µM (inactive)
same,GI50,[17],66.2 µM (inactive)
same,GI50,[19],> 100 µM (inactive)
same,GI50,[20],45 µM (inactive)
same,GI50,[21],> 100 µM (inactive)
same,GI50,[22],> 100 µM (inactive)
same,GI50,[23],69 µM (inactive)
same,GI50,[24],67.1 µM (inactive)
same,GI50,[25],40 µM (inactive)
same,GI50,[26],31.4 µM (inactive)
same,GI50,[27],47.9 µM (inactive)
same,GI50,[29],> 100 µM (inactive)
same,GI50,[30],40.1 µM (inactive)
same,GI50,[31],> 100 µM (inactive)
same,GI50,[32],46.6 µM (inactive)
same,GI50,[33],> 100 µM (inactive)
same,GI50,[34],> 100 µM (inactive)
same,GI50,[35],32.4 µM (inactive)
same,GI50,[36],> 100 µM (inactive)
same,GI50,[37],22.4 µM (inactive)
same,GI50,[38],59.2 µM (inactive)
same,GI50,[39],48.6 µM (inactive)
same,GI50,[40],> 100 µM (inactive)
same,GI50,[41],> 100 µM (inactive)
same,GI50,[42],28.4 µM (inactive)
same,GI50,[43],52 µM (inactive)
same,GI50,[44],30.4 µM (inactive)
same,GI50,[58],> 100 µM (inactive)
same,GI50,[45],> 100 µM (inactive)
same,GI50,[46],> 100 µM (inactive)
same,GI50,[47],> 100 µM (inactive)
same,GI50,[48],63.7 µM (inactive)
same,GI50,[49],> 100 µM (inactive)
same,GI50,[50],21.6 µM (inactive)
same,GI50,[51],30 µM (inactive)
same,GI50,[52],15.7 µM (inactive)
same,GI50,[53],41.3 µM
same,GI50,[54],20 µM (inactive)
same,GI50,[55],> 100 µM (inactive)
same,GI50,[57],86.5 µM (inactive)
